The results in this text go back to patent US8304206B2, “Mass spectrometry assays for identifying compounds that activate deacetylases” (Sirtris Pharmaceuticals, Inc., priority 2005, dated 2012).

The structures appear in SMILES notation.

The target of the assay is T1, SIRT1 (Homo sapiens, UniProt Q96EB6).
T1 sequence (Q96EB6 1-747): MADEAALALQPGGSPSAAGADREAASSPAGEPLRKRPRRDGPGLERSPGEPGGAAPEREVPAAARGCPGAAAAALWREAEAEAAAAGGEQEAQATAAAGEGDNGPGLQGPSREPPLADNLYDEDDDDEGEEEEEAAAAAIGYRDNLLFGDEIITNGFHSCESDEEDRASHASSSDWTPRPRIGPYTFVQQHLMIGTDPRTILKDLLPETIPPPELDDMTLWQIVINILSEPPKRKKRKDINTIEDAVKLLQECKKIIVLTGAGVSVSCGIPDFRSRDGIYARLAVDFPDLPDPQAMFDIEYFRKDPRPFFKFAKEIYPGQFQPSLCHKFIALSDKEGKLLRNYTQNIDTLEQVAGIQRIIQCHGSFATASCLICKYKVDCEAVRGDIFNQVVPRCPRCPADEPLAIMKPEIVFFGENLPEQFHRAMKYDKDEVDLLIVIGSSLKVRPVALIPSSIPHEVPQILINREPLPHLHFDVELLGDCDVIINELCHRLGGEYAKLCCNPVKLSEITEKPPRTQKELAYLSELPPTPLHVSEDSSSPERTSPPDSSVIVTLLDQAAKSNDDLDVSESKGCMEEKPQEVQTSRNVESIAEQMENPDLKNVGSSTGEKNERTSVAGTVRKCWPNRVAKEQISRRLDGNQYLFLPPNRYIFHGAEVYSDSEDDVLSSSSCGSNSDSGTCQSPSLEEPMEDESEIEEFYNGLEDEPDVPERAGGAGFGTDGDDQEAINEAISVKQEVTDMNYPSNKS
Kind of assay: SIRT1 mass spectrometry assay (screening for activation). Conditions: for FOLD ACTIVATION MS: activation of SIRT1, mass spectrometry; for EC50: activation of SIRT1, 0.5 μM peptide substrate (SEQ ID NO: 34), 120 μM NAD+, 10 nM SIRT1, 25 min, read-out: ED50 MS ASSAY. In kind it is biochemical.

As to `COc1ccc(C(=O)Nc2cccc(-c3nc4ncccc4o3)n2)c(OC)c1` [compound 69], the “FOLD ACTIVATION MS” value is listed as “B (Fold Activation<250%)”. The same measure, in the same setting: with `CN(C)c1ccc(C(=O)Nc2cccc(-c3nc4ncccc4o3)n2)cc1` [compound 70] the entry was “B (Fold Activation<250%)”; with `O=C(Nc1ccc2c(c1)OCO2)Nc1cccc(-c2nc3ncccc3o2)n1` [compound 71], “B (Fold Activation<250%)”; with `COc1cc(C(=O)Nc2cc(-c3nc4ncccc4o3)ccn2)cc(OC)c1OC` [compound 75], “B (Fold Activation<250%)”. Consider `CN(C)c1cccc(C(=O)Nc2cc(-c3nc4ncccc4o3)ccn2)c1` [compound 76], for which the “FOLD ACTIVATION MS” value was “B (Fold Activation<250%)”. Same read-out and setting: with `COc1ccc(C(=O)Nc2cc(-c3nc4ccccc4o3)ccn2)cc1OC` [compound 77] the entry was “B (Fold Activation<250%)”. Still for that read-out and setting: in the case of `COc1ccc(C(=O)Nc2cccc(-c3csc(C)n3)c2)cc1OC` [compound 80] it was “B (Fold Activation<250%)”; in that of `COc1ccc(C(=O)Nc2cccc(-c3csc(C)n3)c2)c(OC)c1` [compound 81], “B (Fold Activation<250%)”. Consider `COc1cc(SC)ccc1C(=O)Nc1cccc(-c2nncn2C)c1` [compound 83], for which the “FOLD ACTIVATION MS” value is on record as “B (Fold Activation<250%)”.

As to `COc1ccc(C(=O)Nc2cccc(-c3csc(-c4ccccc4)n3)c2)cc1OC` [compound 84], the “FOLD ACTIVATION MS” value is “B (Fold Activation<250%)”. The same measure, in the same setting: in the case of `Cc1nc(-c2cccc(Nc3nc4ccccc4o3)c2)cs1` [compound 92] it was “B (Fold Activation<250%)”; in that of `c1cc(Nc2nc3ccccc3o2)cc(-c2nc3ncccc3o2)c1` [compound 93], “B (Fold Activation<250%)”. Regarding `c1cc(Nc2nc3ccccc3s2)cc(-c2nc3ncccc3o2)c1` [compound 95], the “FOLD ACTIVATION MS” value is “B (Fold Activation<250%)” and the EC50 was < 50 µM. For `COc1ccc(C(=O)Nc2ccccc2-c2nc3ncccc3o2)cc1OC` [compound 96], in that order: “B (Fold Activation<250%)” and < 50 µM. For `CN(C)c1cccc(C(=O)Nc2ccccc2-c2nc3ncccc3o2)c1` [compound 97], in that order: “B (Fold Activation<250%)” and < 50 µM.

`O=C(Nc1cccc(-c2nc3ccncc3s2)c1)Nc1ccc2c(c1)OCO2` [compound 99]: the “FOLD ACTIVATION MS” value was “A (Fold activation>250%)” and the EC50 is < 50 µM.

On to `COc1ccc(NC(=O)c2cccc(-c3nc4ncccc4o3)c2)c(OC)c1` [compound 100], for which the “FOLD ACTIVATION MS” value is listed as “B (Fold Activation<250%)”.

`COc1ccc(NC(=O)c2cccc(-c3nc4ncccc4o3)c2)cc1OC` [compound 101]: the “FOLD ACTIVATION MS” value was “A (Fold activation>250%)”. On the same count and under the same terms, with `COc1cc(NC(=O)c2cccc(-c3nc4ncccc4o3)c2)cc(OC)c1OC` [compound 102] the entry was “A (Fold activation>250%)”.

Consider `c1cc(Nc2nc3ccccc3s2)nc(-c2nc3ncccc3o2)c1` [compound 104], for which the “FOLD ACTIVATION MS” value is “B (Fold Activation<250%)” and the EC50 was < 50 µM. In the same order, the values of `c1cc(Nc2nc3ccccc3o2)nc(-c2nc3ncccc3o2)c1` [compound 105] are “B (Fold Activation<250%)” and < 50 µM. In the same order, the values of `COc1cc(C(=O)Nc2ccccc2-c2nc3ncccc3o2)cc(OC)c1OC` [compound 106] are “B (Fold Activation<250%)” and < 50 µM. Regarding `COc1cc(OC)cc(C(=O)Nc2ccccc2-c2nc3ccccc3[nH]2)c1` [compound 141], the “FOLD ACTIVATION MS” value is on record as “B (Fold Activation<250%)” and the EC50 was < 50 µM. For `COc1ccc(C(=O)Nc2ccccc2-c2nc3ccccc3[nH]2)cc1OC` [compound 142], in that order: “A (Fold activation>250%)” and < 50 µM. In the same order, the values of `COc1ccc(C(=O)Nc2sccc2-c2nc3ccccc3s2)cc1OC` [compound 145] are “B (Fold Activation<250%)” and < 50 µM. For `COc1cc(OC)cc(C(=O)Nc2sccc2-c2nc3ccccc3s2)c1` [compound 146], in that order: “B (Fold Activation<250%)” and < 50 µM. As to `COc1cc(C)ccc1C(=O)Nc1ccc(-c2nc3cccnc3[nH]2)cc1` [compound 149], the “FOLD ACTIVATION MS” value is “B (Fold Activation<250%)” and the EC50 is < 50 µM. For `COc1ccc(C(=O)Nc2ccc(-c3nc4cccnc4[nH]3)cc2)cc1OC` [compound 150], in that order: “B (Fold Activation<250%)” and < 50 µM. `COc1ccc(C(=O)Nc2cc(C(=O)NCCN(C)C)cc(-c3nc4ncccc4o3)c2)cc1OC` [compound 153]: the “FOLD ACTIVATION MS” value is “B (Fold Activation<250%)”. Regarding `CN(C)CCNC(=O)c1cc(NC(=O)c2cccc(N(C)C)c2)cc(-c2nc3ncccc3o2)c1` [compound 154], the “FOLD ACTIVATION MS” value is reported as “A (Fold activation>250%)”.

In the case of `COc1ccc(C(=O)Nc2cc(C(=O)NCCN(C)C)cc(-c3nc4ncccc4o3)c2)c(OC)c1` [compound 155], the “FOLD ACTIVATION MS” value is on record as “B (Fold Activation<250%)”. As for `COc1ccc(C(=O)Nc2cc(CN(C)C)cc(-c3nc4ncccc4o3)c2)cc1OC` [compound 156], the “FOLD ACTIVATION MS” value is on record as “B (Fold Activation<250%)”. Still for that read-out and setting: with `CN(C)Cc1cc(NC(=O)c2cccc(N(C)C)c2)cc(-c2nc3ncccc3o2)c1` [compound 157] the entry was “B (Fold Activation<250%)”; with `COc1ccc(C(=O)Nc2cc(CN(C)C)cc(-c3nc4ncccc4o3)c2)c(OC)c1` [compound 158], “B (Fold Activation<250%)”.

With `COc1ccc(C(=O)Nc2cc(CN3CCNCC3)cc(-c3nc4ncccc4o3)c2)cc1OC` [compound 159], the “FOLD ACTIVATION MS” value is “B (Fold Activation<250%)”. The same measure, in the same setting: with `CN(C)c1cccc(C(=O)Nc2cc(CN3CCNCC3)cc(-c3nc4ncccc4o3)c2)c1` [compound 160] the entry was “A (Fold activation>250%)”; with `COc1ccc(C(=O)Nc2cc(CN3CCNCC3)cc(-c3nc4ncccc4o3)c2)c(OC)c1` [compound 161], “A (Fold activation>250%)”.

For the compound `COc1ccc(C(=O)Nc2ccccc2-c2nc3ccncc3s2)cc1OC` [compound 162], the “FOLD ACTIVATION MS” value is “B (Fold Activation<250%)” and the EC50 was < 50 µM. In the same order, the values of `COc1cc(C(=O)Nc2ccccc2-c2nc3ccncc3s2)cc(OC)c1OC` [compound 163] are “B (Fold Activation<250%)” and < 50 µM.

With `COc1ccc(C(=O)Nc2cc(C(=O)N3CCNCC3)cc(-c3nc4ncccc4o3)c2)cc1OC` [compound 164], the “FOLD ACTIVATION MS” value is “B (Fold Activation<250%)”. Still for that read-out and setting: with `CN(C)Cc1ccc2oc(-c3cccc(NC(=O)c4cccc(N(C)C)c4)c3)nc2n1` [compound 165] the entry was “A (Fold activation>250%)”. On the same count and under the same terms, in the case of `CN(C)c1cccc(C(=O)Nc2cccc(-c3nc4nc(CN5CCNCC5)ccc4o3)c2)c1` [compound 166] it was “B (Fold Activation<250%)”. Take `Cc1ccc2oc(-c3cccc(NC(=O)c4cccc(N(C)C)c4)c3)nc2n1` [compound 167]: the “FOLD ACTIVATION MS” value is reported as “B (Fold Activation<250%)”. Take `CN(C(=O)Nc1ccccc1-c1nc2ccccc2[nH]1)c1ccccc1` [compound 169]: the “FOLD ACTIVATION MS” value was “B (Fold Activation<250%)” and the EC50 is < 50 µM. As for `COc1cc(C(=O)Nc2cc(CN(C)C)cc(-c3nc4ccncc4s3)c2)cc(OC)c1OC` [compound 174], the “FOLD ACTIVATION MS” value is reported as “A (Fold activation>250%)”. Same read-out and setting: in the case of `COc1ccc(C(=O)Nc2ccccc2-n2cccc2)cc1OC` [compound 175] it was “B (Fold Activation<250%)”. Still for that read-out and setting: in the case of `COc1cc(C(=O)Nc2ccccc2-n2cccn2)cc(OC)c1OC` [compound 176] it was “B (Fold Activation<250%)”; in that of `COc1ccc(C(=O)Nc2ccccc2-n2cccn2)cc1OC` [compound 177], “B (Fold Activation<250%)”. Same read-out and setting: in the case of `COc1ccc(C(=O)Nc2ccccc2-c2cn3cc(CN(C)C)sc3n2)cc1OC` [compound 178] it was “A (Fold activation>250%)”. Consider `COc1cc(C(=O)Nc2ccccc2-c2cn3cc(CN(C)C)sc3n2)cc(OC)c1OC` [compound 179], for which the “FOLD ACTIVATION MS” value was “A (Fold activation>250%)” and the EC50 is < 50 µM.

Turning to `CN(C)c1cccc(C(=O)Nc2ccc(-c3nc4cccnc4[nH]3)cc2)c1` [compound 180], the “FOLD ACTIVATION MS” value was “B (Fold Activation<250%)”. Consider `COc1ccc(C(=O)Nc2cccc(-c3nc4cccnc4[nH]3)c2)c(OC)c1OC` [compound 181], for which the “FOLD ACTIVATION MS” value is reported as “A (Fold activation>250%)” and the EC50 was < 50 µM.

With `COc1cc(C)ccc1C(=O)Nc1cccc(-c2nc3cccnc3[nH]2)c1` [compound 182], the “FOLD ACTIVATION MS” value is “A (Fold activation>250%)” and the EC50 is < 50 µM.
